Results from ChEMBL document CHEMBL1122054, “Lysosomotropic agents. 4. Carbobenzoxyglycylphenylalanyl, a new protease-sensitive masking group for introduction into cells” (J Med Chem, 1982).
Several values for one entry are separate records, joined by “and”; a condition that tells them apart may be missing. Identical values can stand only once. Where a SMILES comes first, the peptide text is derived from it. The star is where a group is joined. Cbz = O=C(OCc1ccccc1)*

How the values were obtained:
[1] = species on record: Mus musculus; test: Toxicity toward P-815 Mastocytoma cells after 5 hr was determined as percent of [51Cr]- release from labeled cells as a measure of cell death. at a concentration of 0.281 mM. (expt IV); type: functional
[2] = species on record: Mus musculus; test: Appearance of mouse peritoneal macrophages after 3h of treatment with compound at a concentration of 0.375 mM; vacuoles, rounded; type: functional, organism-based
[3] = Compound in absence of MPM cell homogenate at pH 4.5 to isolate compound 4 (ng); type: ADME, cell-based
[4] = Compound treated with MPM cell homogenate at pH 4.5 to isolate compound 4 (ng); type: ADME, cell-based
[5] = Compound treated with MPM cell homogenate at pH 7.5 to isolate compound 4 (ng); type: ADME, cell-based
[6] = tested on: MPM; test: Compound along with 4 mM pepstatin in presence of MPM cells at pH 3 to isolate compound 4 (ng); type: cell-based
[7] = tested on: MPM; test: Compound in presence of MPM cells and in absence of inactivator at pH 8 to isolate compound 4 (ng); type: cell-based
[8] = Compound treated with MPM cell homogenate at pH 3 to isolate compound 4 (ng); type: ADME, cell-based
[9] = tested on: MPM; test: Compound in absence of MPM cells and in absence of inactivator at pH 8 to isolate compound 4 (ng); type: cell-based
[10] = Compound treated with MPM cell homogenate at pH 6.5 to isolate compound 4 (ng); type: ADME, cell-based
[11] = species on record: Mus musculus; test: Toxicity toward P-815 Mastocytoma cells after 5 hr was determined as percent of [51Cr]- release from labeled cells as a measure of cell death. at a concentration of 0.331 mM. (expt III); type: functional
[12] = tested on: MPM; test: Compound in presence of MPM cells and in absence of inactivator at pH 3 to isolate compound 4 (ng); type: cell-based
[13] = species on record: Mus musculus; test: Cytotoxicity was determined against mouse peritoneal macrophages (MPM) and the percent of LDH released after 24 hr was determined as a measure of cell death at a concentration of 0.375 mM (expt II); type: functional
[14] = Compound treated with MPM cell homogenate at pH 5 to isolate compound 4 (ng); type: ADME, cell-based
[15] = species on record: Mus musculus; test: Cytotoxicity was determined for the compound against mouse peritoneal macrophages (MPM) at a concentration of 0.165 mM.; type: functional
[16] = Compound in absence of MPM cell homogenate at pH 3 to isolate compound 4 (ng); type: ADME, cell-based
[17] = species on record: Mus musculus; test: Toxicity was evaluated for the compound at a concentration of 0.331 mM against […] Mastocytoma.; type: functional
[18] = tested on: MPM; test: Compound (steam-treated 10 min) in presence of MPM cells at pH 3 to isolate compound 4 (ng); No data; type: cell-based
[19] = tested on: MPM; test: Compound along with 10 uM HgCl2 in presence of MPM cells at pH 3 to isolate compound 4 (ng); type: cell-based
[20] = Compound treated with MPM cell homogenate at pH 8 to isolate compound 4 (ng); type: ADME, cell-based
[21] = tested on: MPM; test: Compound along with 3 mM leupeptin in presence of MPM cells at pH 3 to isolate compound 4 (ng); type: cell-based
[22] = Compound treated with MPM cell homogenate at pH 6 to isolate compound 4 (ng); type: ADME, cell-based
[23] = Compound in absence of MPM cell homogenate at pH 7 to isolate compound 4 (ng); type: ADME, cell-based
[24] = species on record: Mus musculus; test: Cytotoxicity was determined against mouse peritoneal macrophages (MPM) and the percent of LDH released after 24 hr was determined as a measure of cell death at a concentration of 0.375 mM (expt I); type: functional
[25] = Compound treated with MPM cell homogenate at pH 7 to isolate compound 4 (ng); type: ADME, cell-based
[26] = Compound treated in absence of MPM cell homogenate at pH 4.5 to isolate compound 4 (ng); type: ADME, cell-based
[27] = Compound treated with MPM cell homogenate at pH 4 to isolate compound 4 (ng); type: ADME, cell-based
[28] = Compound treated with MPM cell homogenate at pH 5.5 to isolate compound 4 (ng); type: ADME, cell-based
[29] = Compound treated with MPM cell homogenate at pH 3.5 to isolate compound 4 (ng); type: ADME, cell-based
[30] = species on record: Mus musculus; test: Toxicity was evaluated for the compound at a concentration of 0.257 mM against […] Mastocytoma.; type: functional
[31] = species on record: Mus musculus; test: Toxicity toward P-815 Mastocytoma cells after 5 hr was determined as percent of [51Cr]- release from labeled cells as a measure of cell death. at a concentration of 0.257 mM. (expt III); type: functional

## O=C(CNC(=O)OCc1ccccc1)N[C@@H](Cc1ccccc1)C(=O)O (Cbz-Gly-Phe-OH)
[1]
  Cr release: 16%

## CCCCCCCCCCCCN(CC(F)(F)F)C(=O)[C@@H](Cc1ccccc1)NC(=O)CNC(=O)OCc1ccccc1
[2]
  Activity: vacuoles, rounded
[3]
  Activity: 36
[4]
  Activity: 92 and 36
[5]
  Activity: 52
[6]
  Activity: 27
[7]
  Activity: 24
[8]
  Activity: 92
[9]
  Activity: 13
[10]
  Activity: 28
[11]
  Cr release: 22%
[12]
  Activity: 53
[13]
  LDH release: 61%
[14]
  Activity: 30
[15]
  Toxicity: 100 µg/mL
[16]
  Activity: 30
[17]
  Toxicity: 200 µg/mL
[18]
  Activity: 0
[19]
  Activity: 28
[20]
  Activity: 104
[21]
  Activity: 23
[22]
  Activity: 54
[23]
  Activity: 20
[24]
  LDH release: 73%
[25]
  Activity: 34
[26]
  Activity: < 14
[27]
  Activity: 49
[28]
  Activity: 22
[29]
  Activity: 79

## CCCCCCCCCCCCNC(=O)[C@H](Cc1ccccc1)NC(=O)CN
[30]
  Toxicity: 100 µg/mL
[31]
  Cr release: 93%

## CCCCCCCCCCCCN(CC(F)(F)F)C(=O)[C@H](Cc1ccccc1)NC(=O)CNC(=O)OCc1ccccc1
[3]
  Activity: 29
[4]
  Activity: < 20
[7]
  Activity: 20
[11]
  Cr release: 11%
[16]
  Activity: 44
[17]
  Toxicity: 200 µg/mL
[23]
  Activity: 28
